Source: patent US20230416239A1, “COMPOUNDS AND METHODS FOR TREATING A CYTOKINE-MEDIATED DISEASE” (CONSERVATOIRE NATIONAL DES ARTS ET MÉTIERS, priority 2020, published 2023)

Experiments:
IL-6 = IL-6 (Homo sapiens, UniProt P05231); assay: Immunoassay binding test, IL-6 (gp130 receptor, IL-6Ra present); settings: IL-6Ra 200 ng/ml
Description: (§1) Microtiter plates (96 wells) are covered with 100 μl of receptor per well, and incubated overnight at 4° C. The following day, after 2 washes in PBS/Tween20, the plates are saturated with 150 μl of PBS/BSA 2% per well, for 2 h at 37° C. Synthetic compounds are diluted in series (final concentrations: 100 to 0.78 μM) then a fixed amount of cytokine in PBS/BSA 1% is added to the compounds, in a final volume of 120 μl per well. […] The cytokine is diluted in series (six concentrations) in a final volume of 120 μl per well. The cytokine is used in the absence of small molecule as well as the range of SPD304 as positive controls and the absence of cytokine and synthetic molecule as negative control. The different mixtures are incubated for 2 h at 37° C. 100 μl of each mixture are then transferred to the microtiter plate, respecting the plate plan previously defined and incubated overnight at 4° C. After three washes, 100 μl of biotinylated anti-cytokine secondary antibody are added to each well, then incubated for 2 h at 37° C. After three washes, 100 μl of Avidin-HRP (1/500th dilution) are added and incubated for 30 minutes at 37° C. […] The plates are then read with a spectrophotometer at 450 nm, measuring the optical density for each well.
(§2) This binding test is carried out with different cytokines: TNFa, IL-4, IL-6 and IL-13. For IL-6, the incubation of molecules with the cytokine also requires the presence of IL-6Ra at a final concentration of 200 ng/ml.
(§3) The final concentrations used for each of the cytokines are presented below: […]

IL-4 = molecular target: T1, IL-4 (Homo sapiens, UniProt P05112); assay: Immunoassay binding test, IL-4; settings: for IC50: IL-4 400 ng/ml, receptor 100 ng/ml, read-out: BINDING IL4 IC50
T1 sequence (P05112 25-153): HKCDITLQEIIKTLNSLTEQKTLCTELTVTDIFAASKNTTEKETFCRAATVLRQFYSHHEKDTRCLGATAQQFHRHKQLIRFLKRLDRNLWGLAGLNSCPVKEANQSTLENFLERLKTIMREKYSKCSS
Description: as §1, §2, §3

IL-13 = IL-13 (Homo sapiens, UniProt P35225); assay: Immunoassay binding test, IL-13; settings: for IC50: IL-13 400 ng/ml, receptor 100 ng/ml, read-out: BINDING IL13 IC50
Description: as §1, with “The cytokine is used in the absence of small molecule as well as the range of SPD304 as positive controls and the absence of cytokine and synthetic molecule as negative control.” left out
as §2, §3

TNFα = TNFα (Homo sapiens, UniProt P01375); assay: Immunoassay binding test, TNFa; settings: compounds 100 to 0.78 μM; TNFα 10 ng/ml, receptor 100 ng/ml; read-out: BINDING TNF IC50
Method in brief: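 ELISA-type binding test: receptor-coated plates blocked with 2% BSA, then cytokine (six-point dilution series) preincubated 2 h at 37 °C and bound overnight at 4 °C. Detection used biotinylated anti-cytokine antibody and avidin-HRP, read as OD at 450 nm. For IL-6, IL-6Ra was present at 200 ng/ml final.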

TNFa/TNFRI interaction = TNFa/TNFRI interaction (Homo sapiens, UniProt P01375); assay: TNFa/TNFRI interaction displacement test; format: binding; settings: for Displacement (%): compounds at 50 μM, human TNFRI 100 ng/ml; for Displacement EC50 TNFa in presence of compound: Difference: Compound EC50 minus SPD304 EC50;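 as to Displacement EC50 TNFa in presence of compound: Difference: SPD304 reference at 20 µM final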
Method in brief: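 Plates coated overnight at 4° C with human TNFRI (100 ng/ml) and blocked with 2% BSA, then test mixtures were incubated overnight at 4° C. Bound cytokine detected with biotinylated anti-cytokine antibody (2 h, 37° C) and avidin-HRP, read as OD at 450 nm.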

Sequence of IL-6 (P05231 30-212, species assumed): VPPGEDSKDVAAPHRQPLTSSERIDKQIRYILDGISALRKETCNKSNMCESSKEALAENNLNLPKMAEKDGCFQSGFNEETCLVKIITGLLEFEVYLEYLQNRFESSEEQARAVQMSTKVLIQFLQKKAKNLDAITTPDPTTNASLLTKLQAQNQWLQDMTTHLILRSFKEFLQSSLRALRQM
Sequence of IL-13 (P35225 25-146, species assumed): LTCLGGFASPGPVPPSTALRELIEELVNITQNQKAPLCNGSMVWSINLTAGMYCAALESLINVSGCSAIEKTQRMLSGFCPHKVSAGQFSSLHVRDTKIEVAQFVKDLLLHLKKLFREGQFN
Sequence of TNFa/TNFRI interaction (P01375 77-233 limits assumed): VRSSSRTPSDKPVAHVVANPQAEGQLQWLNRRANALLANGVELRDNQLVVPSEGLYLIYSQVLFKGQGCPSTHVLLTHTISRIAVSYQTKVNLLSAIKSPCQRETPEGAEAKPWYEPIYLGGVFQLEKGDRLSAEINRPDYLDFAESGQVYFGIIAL
Sequence of TNFα (P01375 77-233 limits assumed, species assumed): as the sequence (P01375 77-233 limits assumed) above

Structure (SMILES) | BINDING IL6 % Neutra at 100 μM (IL-6) [%] | BINDING IL4 % Neutra at 100 μM (IL-4) [%] | IC50 (IL-4) [µM] | BINDING IL13 % Neutra at 100 μM (IL-13) [%] | IC50 (IL-13) [µM] | IC50 (TNFα) [µM] | Displacement (%) (TNFa/TNFRI interaction) | Displacement EC50 TNFa in presence of compound: Difference (TNFa/TNFRI interaction)
FC(F)(F)c1cccc(-n2cc(CN(CCCCCNC3CCCCC3)Cc3cccnc3)c3ccccc32)c1 [Compound 38] | 24.9 | 95.7 | 3.9 | 98.9 | 1.5 | > 50 | 139 | 
CN(CCOCCN(Cc1cccnc1F)Cc1cn(S(=O)(=O)c2ccccc2)c2ccccc12)C1CCCC1 [Compound 104] | 0 | 88.2 | 13.2 | 79.8 | > 50 | 9.2 | 123 | 
CN(CCCN(Cc1ccncc1)Cc1cn(S(=O)(=O)c2ccccc2)c2ccccc12)C1CCCCC1 [Compound 11] | −3 | 97.6 | 6.2 | 90.2 | > 50 | 4.4 | 215 | 
FC(F)(F)c1cccc(-n2cc(CN(Cc3cccnc3)CC3CCCN(C4CCCCC4)C3)c3ccccc32)c1 (stereo not shown) [Compound 4] | 5.2 | 98.3 | 4 | 92.2 | 9.9 | 21.3 | 221 | Difference = 9 ng/ml
CCN(CCOCCN(Cc1cccnc1F)Cc1cn(S(=O)(=O)c2ccccc2)c2ccccc12)C1CCCC1 [Compound 107, N-ethyl-N-(2-(2-(((2-fluoropyridin-3-yl)methyl)((1-(phenylsulfonyl)-1H-indol-3-yl)methyl)amino)ethoxy)ethyl)cyclopentanamine] | 0 | 74.9 | 5.1 | 66.1 | 25.9 | 7.2 | 169 | 
O=S(=O)(c1ccccc1)n1cc(CN(CCCNC2CCCCC2)Cc2ccncc2)c2ccccc21 [Compound 8] | 3.3 | 98.1 | 5.3 | 81.7 | > 50 | 12.2 | 168 | 0.0109 µg/mL
CCN(CCCCN(Cc1cccnc1F)Cc1cn(S(=O)(=O)c2ccccc2)c2ccccc12)C1CCCCC1 [Compound 66, N′-cyclohexyl-N′-ethyl-N^4-((2-fluoropyridin-3-yl)methyl)-N^4-((1-(phenylsulfonyl)-1H-indol-3-yl)methyl)butane-1,4-diamine] | 3 | 89.1 | 4.7 | 85.1 | 36 | 6.4 | 215 | 
O=S(=O)(c1ccccc1)n1cc(CN(CCOCCNC2CCCC2)Cc2cccnc2F)c2ccccc21 [Compound 103, N-(2-(2-(((2-fluoropyridin-3-yl)methyl)((1-(phenylsulfonyl)-1H-indol-3-yl)methyl)amino)ethoxy)ethyl)cyclopentanamine] | 0 | 91.1 | 10.5 | 89.1 | 38.9 | 10.2 | 159 | 
